In article PMC6691788, “Design and synthesis of phthalazine-based compounds as potent anticancer agents with potential antiangiogenic activity via VEGFR-2 inhibition” (Journal of Enzyme Inhibition and Medicinal Chemistry, 2019):

Tests used:
CCRF-CEM = assay: NCI 60 cell panel SRB screen; format: cell-based, human
K-562 = assay: NCI 60 cell panel SRB screen; format: cell-based; settings: Homo sapiens, K562
RPMI-8226 = assay: NCI 60 cell panel SRB screen; format: cell-based; settings: Homo sapiens
SR = assay: NCI 60 cell panel SRB screen; format: cell-based; settings: Homo sapiens
NCI-H226 = assay: NCI 60 cell panel SRB screen; format: cell-based; settings: Homo sapiens
NCI-H23 = assay: NCI 60 cell panel SRB screen; format: cell-based; settings: Homo sapiens
NCI-H322M = assay: NCI 60 cell panel SRB screen; format: cell-based; settings: Homo sapiens
NCI-H522 = assay: NCI 60 cell panel SRB screen; format: cell-based; settings: Homo sapiens
COLO 205 = assay: NCI 60 cell panel SRB screen; format: cell-based; settings: Homo sapiens
SW-620 = assay: NCI 60 cell panel SRB screen; format: cell-based; settings: Homo sapiens
SNB-75 = assay: NCI 60 cell panel SRB screen; format: cell-based; settings: Homo sapiens
LOX IMVI = assay: NCI 60 cell panel SRB screen; format: cell-based; settings: Homo sapiens
MALME-3M = assay: NCI 60 cell panel SRB screen; format: cell-based; settings: Homo sapiens
SK-MEL-28 = assay: NCI 60 cell panel SRB screen; format: cell-based; settings: Homo sapiens
OVCAR-4 = assay: NCI 60 cell panel SRB screen; format: cell-based; settings: Homo sapiens
OVCAR-5 = assay: NCI 60 cell panel SRB screen; format: cell-based; settings: Homo sapiens
786-0 = assay: NCI 60 cell panel SRB screen; format: cell-based; settings: Homo sapiens
BT-549 = assay: NCI 60 cell panel SRB screen; format: cell-based; settings: Homo sapiens
T-47D = assay: NCI 60 cell panel SRB screen; format: cell-based; settings: Homo sapiens, T47D
VEGFR-2 tyrosine kinase = target: T1, VEGFR-2 tyrosine kinase (Homo sapiens, UniProt P35968); assay: In vitro VEGFR-2 tyrosine kinase assay (BPS Bioscience); format: biochemical; settings: read-out: VEGFR-2 % inhibition; 10 μM concentration
T1 construct: purchased BPS Bioscience 40301
Procedure, shortened: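 Single-point screen at 10 µM: recombinant VEGFR with poly(Glu,Tyr) 0.2 mg/ml, 10 μM ATP, Tris pH 7.4, MgCl2, BSA, 1% DMSO, 40 min at 30 °C; residual ATP read by Kinase-Glo Plus luminescence.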

[1] = 5 log dose, 48 h, read-out: LC50 (the source's name)
[2] = single dose 10 μM, read-out: percent cell growth promotion
[3] = read-out: percent cell growth promotion

T1 sequence (P35968 20-1356): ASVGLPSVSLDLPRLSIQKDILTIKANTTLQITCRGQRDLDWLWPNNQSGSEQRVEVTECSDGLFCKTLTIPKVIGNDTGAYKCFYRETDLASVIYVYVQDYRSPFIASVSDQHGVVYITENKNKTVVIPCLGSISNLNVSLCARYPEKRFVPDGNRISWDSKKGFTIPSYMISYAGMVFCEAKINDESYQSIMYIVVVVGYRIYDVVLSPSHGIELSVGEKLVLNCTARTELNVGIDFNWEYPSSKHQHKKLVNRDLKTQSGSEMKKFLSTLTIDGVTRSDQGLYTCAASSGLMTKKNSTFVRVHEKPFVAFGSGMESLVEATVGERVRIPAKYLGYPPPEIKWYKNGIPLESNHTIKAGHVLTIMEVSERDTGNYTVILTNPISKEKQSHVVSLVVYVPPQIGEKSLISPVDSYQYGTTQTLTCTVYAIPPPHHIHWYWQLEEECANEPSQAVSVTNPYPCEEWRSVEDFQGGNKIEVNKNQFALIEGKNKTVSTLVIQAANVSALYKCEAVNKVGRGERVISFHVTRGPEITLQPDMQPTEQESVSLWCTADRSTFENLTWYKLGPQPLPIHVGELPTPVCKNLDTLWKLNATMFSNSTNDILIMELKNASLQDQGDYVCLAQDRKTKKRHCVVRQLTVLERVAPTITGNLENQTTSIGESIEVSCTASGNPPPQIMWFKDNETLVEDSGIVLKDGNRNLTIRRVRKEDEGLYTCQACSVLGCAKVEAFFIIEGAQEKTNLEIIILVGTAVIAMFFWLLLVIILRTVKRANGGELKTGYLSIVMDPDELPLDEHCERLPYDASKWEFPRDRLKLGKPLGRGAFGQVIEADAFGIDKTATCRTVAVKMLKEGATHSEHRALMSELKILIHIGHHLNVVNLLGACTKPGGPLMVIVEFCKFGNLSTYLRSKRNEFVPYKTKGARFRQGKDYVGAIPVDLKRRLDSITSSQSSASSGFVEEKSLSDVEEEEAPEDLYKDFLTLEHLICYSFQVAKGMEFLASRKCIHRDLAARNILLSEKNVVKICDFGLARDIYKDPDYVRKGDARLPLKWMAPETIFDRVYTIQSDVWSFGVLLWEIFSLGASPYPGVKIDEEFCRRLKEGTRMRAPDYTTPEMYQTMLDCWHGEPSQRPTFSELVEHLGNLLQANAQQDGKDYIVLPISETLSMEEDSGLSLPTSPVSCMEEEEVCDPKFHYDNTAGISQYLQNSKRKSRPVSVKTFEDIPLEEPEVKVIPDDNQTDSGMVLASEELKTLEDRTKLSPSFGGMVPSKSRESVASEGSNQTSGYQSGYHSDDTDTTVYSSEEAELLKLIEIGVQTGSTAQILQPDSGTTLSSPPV

Q: For `O=C(Nc1ccccc1)Nc1ccc(Oc2nnc(Cl)c3ccccc23)cc1` [Compound 13a, 1–(4-(4-Chlorophthalazin-1-yloxy)phenyl)-3-phenylurea], which TGI (CCRF-CEM; 5 log dose) is on record?
A: Its TGI is > 25 µM.

Q: And the GI50 (CCRF-CEM; Homo sapiens, 5 log dose)?
A: The GI50 was 4.44 µM.

Q: What about the CC50 (CCRF-CEM; Homo sapiens, 5 log dose, 48 h, read-out: LC50 (the source's name)) of the same compound?
A: Its CC50 is > 25 µM.

Q: And the activity at 10 µM (CCRF-CEM; Homo sapiens, single dose 10 μM, read-out: percent cell growth promotion)?
A: Its activity at 10 µM is 47.6%.

Q: What about the GI50 (K-562; K-562, 5 log dose) of the same compound?
A: The GI50 was 6.21 µM.

Q: And the IC (TGI) (K-562; K-562, 5 log dose)?
A: The IC (TGI) was > 25 µM.

Q: And the CC50 (K-562; K-562, 5 log dose, 48 h, read-out: LC50 (the source's name))?
A: The CC50 was > 25 µM.

Q: And the activity at 10 µM (K-562; K-562, single dose 10 μM, read-out: percent cell growth promotion)?
A: The activity at 10 µM was 51.6%.

Q: What about the GI50 (RPMI-8226; RPMI-8226, 5 log dose) of the same compound?
A: The GI50 was 4.45 µM.

Q: What about the IC (TGI) (RPMI-8226; RPMI-8226, 5 log dose) of the same compound?
A: The IC (TGI) was 24.3 µM.

Q: And the CC50 (RPMI-8226; RPMI-8226, 5 log dose, 48 h, read-out: LC50 (the source's name))?
A: The CC50 was > 25 µM.

Q: And the activity at 10 µM (RPMI-8226; RPMI-8226, single dose 10 μM, read-out: percent cell growth promotion)?
A: The activity at 10 µM was 35.1%.

Q: What about the GI50 (SR; 5 log dose) of the same compound?
A: Its GI50 is 1.93 µM.

Q: What about the IC (TGI) (SR; 5 log dose) of the same compound?
A: Its IC (TGI) is 8.26 µM.

Q: What about the CC50 (SR; [1]) of the same compound?
A: The CC50 was > 25 µM.

Q: What about the activity at 10 µM (SR; [2]) of the same compound?
A: The activity at 10 µM was 18%.

Q: And the GI50 (NCI-H226; NCI-H226, 5 log dose)?
A: The GI50 was 1.95 µM.

Q: And the IC (TGI) (NCI-H226; NCI-H226, 5 log dose)?
A: Its IC (TGI) is 9.25 µM.

Q: What about the CC50 (NCI-H226; NCI-H226, 5 log dose, 48 h, read-out: LC50 (the source's name)) of the same compound?
A: Its CC50 is > 25 µM.

Q: What about the activity at 10 µM (NCI-H226; NCI-H226, single dose 10 μM, read-out: percent cell growth promotion) of the same compound?
A: Its activity at 10 µM is 8.66%.

Q: What about the GI50 (NCI-H23; NCI-H23, 5 log dose) of the same compound?
A: The GI50 was 3.72 µM.

Q: What about the IC (TGI) (NCI-H23; NCI-H23, 5 log dose) of the same compound?
A: The IC (TGI) was 9.44 µM.

Q: And the CC50 (NCI-H23; NCI-H23, 5 log dose, 48 h, read-out: LC50 (the source's name))?
A: Its CC50 is 24 µM.

Q: What about the activity at 10 µM (NCI-H23; NCI-H23, single dose 10 μM, read-out: percent cell growth promotion) of the same compound?
A: Its activity at 10 µM is 32.7%.

Q: And the GI50 (NCI-H322M; 5 log dose)?
A: Its GI50 is 2.19 µM.

Q: And the IC (TGI) (NCI-H322M; 5 log dose)?
A: The IC (TGI) was > 25 µM.

Q: And the CC50 (NCI-H322M; [1])?
A: The CC50 was > 25 µM.

Q: What about the activity at 10 µM (NCI-H322M; [2]) of the same compound?
A: Its activity at 10 µM is 47.3%.

Q: What about the GI50 (NCI-H522; NCI-H522, 5 log dose) of the same compound?
A: Its GI50 is 2.8 µM.

Q: And the IC (TGI) (NCI-H522; NCI-H522, 5 log dose)?
A: Its IC (TGI) is 9.68 µM.

Q: What about the CC50 (NCI-H522; NCI-H522, 5 log dose, 48 h, read-out: LC50 (the source's name)) of the same compound?
A: Its CC50 is > 25 µM.

Q: What about the activity at 10 µM (NCI-H522; NCI-H522, single dose 10 μM, read-out: percent cell growth promotion) of the same compound?
A: The activity at 10 µM was 2%.

Q: And the GI50 (COLO 205; COLO 205, 5 log dose)?
A: The GI50 was 5.24 µM.

Q: What about the IC (TGI) (COLO 205; COLO 205, 5 log dose) of the same compound?
A: Its IC (TGI) is > 25 µM.

Q: And the CC50 (COLO 205; COLO 205, 5 log dose, 48 h, read-out: LC50 (the source's name))?
A: The CC50 was > 25 µM.

Q: And the activity at 10 µM (COLO 205; COLO 205, single dose 10 μM, read-out: percent cell growth promotion)?
A: The activity at 10 µM was 35.1%.

Q: What about the GI50 (SW-620; SW-620, 5 log dose) of the same compound?
A: Its GI50 is 8.41 µM.

Q: What about the IC (TGI) (SW-620; SW-620, 5 log dose) of the same compound?
A: Its IC (TGI) is > 25 µM.

Q: And the CC50 (SW-620; SW-620, 5 log dose, 48 h, read-out: LC50 (the source's name))?
A: The CC50 was > 25 µM.

Q: What about the activity at 10 µM (SW-620; SW-620, single dose 10 μM, read-out: percent cell growth promotion) of the same compound?
A: Its activity at 10 µM is 73.4%.

Q: What about the GI50 (SNB-75; SNB-75, 5 log dose) of the same compound?
A: Its GI50 is 1.08 µM.

Q: What about the IC (TGI) (SNB-75; SNB-75, 5 log dose) of the same compound?
A: The IC (TGI) was 5.9 µM.

Q: And the LC50 (concentration killing 50% of cells) (SNB-75; SNB-75, 5 log dose, 48 h)?
A: The LC50 (concentration killing 50% of cells) was 21.3 µM.

Q: And the activity at 10 µM (SNB-75; SNB-75, single dose 10 μM, read-out: percent cell growth promotion)?
A: The activity at 10 µM was -42%.

Q: What about the GI50 (LOX IMVI) of the same compound?
A: Its GI50 is 3.46 µM.

Q: And the CC50 (LOX IMVI; [1])?
A: The CC50 was 13.4 µM.

Q: And the IC (TGI) (LOX IMVI; read-out: TGI)?
A: Its IC (TGI) is 6.08 µM.

Q: What about the activity at 10 µM (LOX IMVI; [3]) of the same compound?
A: Its activity at 10 µM is 32.1%.

Q: And the GI50 (MALME-3M; Malme-3M)?
A: Its GI50 is 1.62 µM.

Q: And the IC (TGI) (MALME-3M; Malme-3M, read-out: TGI)?
A: Its IC (TGI) is 5.93 µM.

Q: What about the activity at 10 µM (MALME-3M; Malme-3M, read-out: percent cell growth promotion) of the same compound?
A: Its activity at 10 µM is -29.6%.

Q: And the CC50 (MALME-3M; MALME-3M, 5 log dose, 48 h, read-out: LC50 (the source's name))?
A: Its CC50 is 16 µM.

Q: And the GI50 (SK-MEL-28; SK-MEL-28)?
A: The GI50 was 3.57 µM.

Q: And the IC (TGI) (SK-MEL-28; SK-MEL-28, read-out: TGI)?
A: The IC (TGI) was 12.7 µM.

Q: And the activity at 10 µM (SK-MEL-28; SK-MEL-28, read-out: percent cell growth promotion)?
A: The activity at 10 µM was 44.2%.

Q: And the CC50 (SK-MEL-28; SK-MEL-28, 5 log dose, 48 h, read-out: LC50 (the source's name))?
A: The CC50 was > 25 µM.

Q: What about the GI50 (OVCAR-4; OVCAR-4, 5 log dose) of the same compound?
A: Its GI50 is 1.73 µM.

Q: And the IC (TGI) (OVCAR-4; OVCAR-4, 5 log dose)?
A: The IC (TGI) was 12.2 µM.

Q: And the CC50 (OVCAR-4; OVCAR-4, 5 log dose, 48 h, read-out: LC50 (the source's name))?
A: Its CC50 is > 25 µM.

Q: What about the activity at 10 µM (OVCAR-4; OVCAR-4, single dose 10 μM, read-out: percent cell growth promotion) of the same compound?
A: The activity at 10 µM was 0.22%.

Q: And the GI50 (OVCAR-5; OVCAR-5, 5 log dose)?
A: The GI50 was 5.61 µM.

Q: What about the IC (TGI) (OVCAR-5; OVCAR-5, 5 log dose) of the same compound?
A: The IC (TGI) was 15.3 µM.

Q: What about the CC50 (OVCAR-5; OVCAR-5, 5 log dose, 48 h, read-out: LC50 (the source's name)) of the same compound?
A: The CC50 was > 25 µM.

Q: What about the activity at 10 µM (OVCAR-5; OVCAR-5, single dose 10 μM, read-out: percent cell growth promotion) of the same compound?
A: Its activity at 10 µM is 86.3%.

Q: And the GI50 (786-0; 786-0, 5 log dose)?
A: Its GI50 is 3.6 µM.

Q: What about the IC (TGI) (786-0; 786-0, 5 log dose) of the same compound?
A: The IC (TGI) was 8.18 µM.

Q: And the CC50 (786-0; 786-0, 5 log dose, 48 h, read-out: LC50 (the source's name))?
A: Its CC50 is 18.6 µM.

Q: And the activity at 10 µM (786-0; 786-0, single dose 10 μM, read-out: percent cell growth promotion)?
A: Its activity at 10 µM is 38.2%.

Q: What about the GI50 (BT-549; BT-549) of the same compound?
A: The GI50 was 3.06 µM.

Q: And the IC (TGI) (BT-549; BT-549, read-out: TGI)?
A: Its IC (TGI) is 10.8 µM.

Q: What about the activity at 10 µM (BT-549; BT-549, read-out: percent cell growth promotion) of the same compound?
A: Its activity at 10 µM is 47.7%.

Q: And the CC50 (BT-549; BT-549, 5 log dose, 48 h, read-out: LC50 (the source's name))?
A: Its CC50 is > 25 µM.

Q: What about the GI50 (T-47D) of the same compound?
A: Its GI50 is 0.63 µM.

Q: And the IC (TGI) (T-47D; read-out: TGI)?
A: Its IC (TGI) is 10.8 µM.

Q: And the activity at 10 µM (T-47D; [3])?
A: Its activity at 10 µM is -18%.

Q: What about the CC50 (T-47D; T-47D, 5 log dose, 48 h, read-out: LC50 (the source's name)) of the same compound?
A: Its CC50 is > 25 µM.

Q: And the inhibition at 10 µM (VEGFR-2 tyrosine kinase)?
A: The inhibition at 10 µM was 24%.
